The NIST ThermoML archive (doi:10.1021/je100190e)

Assay: mn = molality of the nth substance listed, in mol/kg
Conditions: 101 kPa, Liquid

N[C@@H](Cc1c[nH]cn1)C(=O)O [L-histidine] + O
mass density [kg/m3]
Conditions | 303.15 K | 308.15 K | 313.15 K | 318.15 K | 323.15 K
m1 = 0.0303 | 997.3 | 995.7 | 993.9 | 991.9 | 989.7
m1 = 0.0606 | 998.9 | 997.3 | 995.5 | 993.5 | 991.3
m1 = 0.0913 | 1000.6 | 999 | 997.2 | 995.2 | 993
m1 = 0.1221 | 1002.2 | 1000.6 | 998.8 | 996.8 | 994.6
m1 = 0.1526 | 1003.8 | 1002.2 | 1000.4 | 998.4 | 996.2

O [water] + N[C@@H](Cc1c[nH]cn1)C(=O)O
Conditions | mass density [kg/m3]
323.15 K, m2 = 0 | 988

Cl.NCCCC[C@H](N)C(=O)O [L-lysine monohydrochloride] + O
mass density [kg/m3]
Conditions | 303.15 K | 308.15 K | 313.15 K | 318.15 K | 323.15 K
m1 = 0.0302 | 997.3 | 995.7 | 993.9 | 991.9 | 989.7
m1 = 0.0606 | 999 | 997.4 | 995.6 | 993.6 | 991.4
m1 = 0.0913 | 1000.7 | 999.1 | 997.3 | 995.3 | 993.1
m1 = 0.1224 | 1002.4 | 1000.8 | 999 | 997 | 994.8
m1 = 0.1536 | 1004.1 | 1002.5 | 1000.7 | 998.7 | 996.4

N=C(N)NCCC[C@H](N)C(=O)O [L-arginine] + O
mass density [kg/m3]
Conditions | 303.15 K | 308.15 K | 313.15 K | 318.15 K | 323.15 K
m1 = 0.0302 | 997.1 | 995.5 | 993.7 | 991.7 | 989.5
m1 = 0.0607 | 998.6 | 997 | 995.2 | 993.2 | 991
m1 = 0.0914 | 1000.1 | 998.5 | 996.7 | 994.7 | 992.5
m1 = 0.122 | 1001.5 | 999.9 | 998.1 | 996.1 | 993.9
m1 = 0.1533 | 1003 | 1001.4 | 999.6 | 997.6 | 995.4

CC(=O)[O-].[K+] [potassium ethanoate] + O
m1 = 1
Conditions | mass density [kg/m3]
303.15 K | 1039.7
308.15 K | 1038.1
313.15 K | 1036.1
318.15 K | 1033.5
323.15 K | 1032

O [water] + N=C(N)NCCC[C@H](N)C(=O)O
Conditions | mass density [kg/m3]
323.15 K, m2 = 0 | 988

O [water] + Cl.NCCCC[C@H](N)C(=O)O
Conditions | mass density [kg/m3]
323.15 K, m2 = 0 | 988

CC(=O)[O-].CC(=O)[O-].[Ca+2] [calcium acetate] + O
m1 = 1
Conditions | mass density [kg/m3]
303.15 K | 1075.1
308.15 K | 1073.2
313.15 K | 1071.6
318.15 K | 1069.3
323.15 K | 1067.1

CC(=O)[O-].[Na+] [sodium ethanoate] + O
m1 = 1
Conditions | mass density [kg/m3]
303.15 K | 1032.9
308.15 K | 1031.8
313.15 K | 1029.3
318.15 K | 1027.5
323.15 K | 1025.4
